The values that follow come from patent publication US20090285791A1, “Regenerating and enhancing development of muscle tissue” (Sbarro Health Research Organization, Inc., priority 2008, published 2009).

One assay has as its target cdk9-55 (Homo sapiens, UniProt P50750). Particulars: Shore et al. 2003; Liu and Herman 2005; cited from earlier work.
The next assay deals with C2C12 cells. Put plainly: C2C12 myoblast differentiation in the presence of kinase inhibitor DRB. It counts as cell-based, mouse. Particulars: C2C12 induced to differentiate. As for the experimental part: C2C12 cells were grown in DMEM supplemented with 20% FBS (GM) or with 2% HS (DM).
Immunoprecipitations were performed with anti-MyoD antibody (Santa Cruz, Calif.) followed by the addition of protein A-sepharose. Beads were extensively washed and loading buffer without β-mercaptoethanol was added at 4° C. to work in non-denaturing conditions. Samples were resolved in PAA-Gels and transferred to a Hybond-ECL nitrocellulose (Amersham, IL). The blots were blocked with TBST containing 5% non-fat dry milk. Antibodies specific for cdk9, myogenin, MHC, RNAPolII, P-Serine2-CTD, Desmin and tubulin were used as described in Simone et al., 2002; Giacinti et al., 2006. Anti-rabbit and anti-mouse peroxidase conjugated and ECL detection system (Amersham, IL) were used for detection.
Since cdk9-55 activity, as well as cdk9-42 activity (Shore et al., Gene 307, 175-182, 2003; Liu and Herman, J. Cell. Physiol. 203, 251-260, 2005), could be inhibited by pharmacological blockade, C2C12 cells were induced to differentiate with the kinase specific inhibitor DRB.

Sequence of cdk9-55 (P50750 1-489 isoform P50750-2): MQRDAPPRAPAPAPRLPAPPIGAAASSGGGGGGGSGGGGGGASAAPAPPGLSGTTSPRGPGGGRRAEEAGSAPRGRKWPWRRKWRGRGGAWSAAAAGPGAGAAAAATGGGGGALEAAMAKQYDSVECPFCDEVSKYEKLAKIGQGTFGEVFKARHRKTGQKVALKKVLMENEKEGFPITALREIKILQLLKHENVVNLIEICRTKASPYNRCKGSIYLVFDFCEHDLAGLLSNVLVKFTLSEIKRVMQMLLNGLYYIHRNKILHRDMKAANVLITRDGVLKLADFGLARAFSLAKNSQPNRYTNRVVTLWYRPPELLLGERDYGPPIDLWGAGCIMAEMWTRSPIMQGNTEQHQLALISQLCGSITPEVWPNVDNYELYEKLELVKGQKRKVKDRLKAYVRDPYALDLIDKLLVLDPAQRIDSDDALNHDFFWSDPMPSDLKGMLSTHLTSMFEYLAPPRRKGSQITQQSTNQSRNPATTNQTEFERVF
Sequence of cdk9-55 (O60563 whole entry partner): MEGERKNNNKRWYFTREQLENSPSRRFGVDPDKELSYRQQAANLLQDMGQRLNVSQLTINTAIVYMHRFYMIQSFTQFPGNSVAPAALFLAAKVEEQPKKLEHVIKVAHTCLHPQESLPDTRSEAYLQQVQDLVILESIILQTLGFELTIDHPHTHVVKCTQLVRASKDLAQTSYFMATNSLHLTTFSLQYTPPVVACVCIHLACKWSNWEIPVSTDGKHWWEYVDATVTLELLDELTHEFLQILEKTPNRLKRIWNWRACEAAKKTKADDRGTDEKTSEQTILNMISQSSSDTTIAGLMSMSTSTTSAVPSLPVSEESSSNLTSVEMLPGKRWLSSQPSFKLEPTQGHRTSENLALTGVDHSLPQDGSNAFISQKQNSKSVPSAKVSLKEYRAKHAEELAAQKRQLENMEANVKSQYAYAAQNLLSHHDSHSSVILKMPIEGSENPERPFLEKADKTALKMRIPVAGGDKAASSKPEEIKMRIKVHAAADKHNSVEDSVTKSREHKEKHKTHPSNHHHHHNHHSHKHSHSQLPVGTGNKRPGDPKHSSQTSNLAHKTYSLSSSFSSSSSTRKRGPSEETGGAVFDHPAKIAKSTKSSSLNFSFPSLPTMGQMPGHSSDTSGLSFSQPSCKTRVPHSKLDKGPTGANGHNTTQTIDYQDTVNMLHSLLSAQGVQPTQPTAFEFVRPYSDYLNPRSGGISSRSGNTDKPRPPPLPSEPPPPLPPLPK

As to `OC[C@H]1O[C@@H](n2cnc3cc(Cl)c(Cl)cc32)[C@H](O)[C@@H]1O` [DRB, 5,6-dichloro-1-β-d-ribofuranosylbenzimidazole], the cdk9-55 kinase activity result on cdk9-55 is recorded as “specifically inhibited”. Further, in the assay with C2C12 cells (DRB 100 μM), the multinucleated myotubes result was “absence of multinucleated myotubes”. Besides, in the assay on C2C12 cells (DRB 100 μM (FIG. 1D, 1E)), the terminal differentiation entry was “failed to undergo terminal differentiation”. In the assay with C2C12 cells (DRB 100 μM, immunoblot), the MHC levels result is recorded as “low MHC levels”.
